Experiment [1] deals with T1, NavMs (Magnetococcus marinus, UniProt A0L5S6, F208L).
T1 construct: gene Mmc1_0798; full-length homotetrameric channel, thrombin-treated
The experiment is described as follows: X-ray crystal structure with sulphur anomalous signal; […]-19F STD NMR; IC50 from whole-cell patch clamp (SSI shift) in HEK293T cells. Format: cell-based.

Experiment [2] deals with NavMs (NavMs F208L, referred to as WT in the paper), prokaryotic voltage-gated sodium channel from Magnetococcus marinus (Magnetococcus marinus) (UniProt A0L5S6). The experiment is described as follows: crystal structure; NavMs (10 mg/ml, 300 uM) with 0.5 mM riluzole in 1% DMSO, or 1% DMSO alone; sitting drops at 4 °C, 30-35% PEG 300, 100 mM HEPES pH 7, 0-100 mM NaCl, HEGA-10 detergent; space group I422, one monomer per asymmetric unit, tetramer by crystal symmetry.

T1 sequence (A0L5S6 entry or part of it F208L): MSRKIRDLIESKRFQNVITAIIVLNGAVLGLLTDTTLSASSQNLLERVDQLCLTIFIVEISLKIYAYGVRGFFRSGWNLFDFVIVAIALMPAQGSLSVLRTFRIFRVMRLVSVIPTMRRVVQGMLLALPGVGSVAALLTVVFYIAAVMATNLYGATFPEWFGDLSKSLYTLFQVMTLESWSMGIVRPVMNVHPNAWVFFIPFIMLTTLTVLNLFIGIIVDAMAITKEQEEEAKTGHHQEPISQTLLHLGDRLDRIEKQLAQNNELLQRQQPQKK

With `Nc1nc2ccc(OC(F)(F)F)cc2s1` [riluzole, 2-amino-6-(trifluoromethoxy)benzothiazole], in experiment [1], the IC50 turned out to be 2000 nM.

In experiment [2], “NavMs (NavMs F208L, referred to as WT in the paper), prokaryotic voltage-gated sodium channel from Magnetococcus marinus (from UniProt A0L5S6 1-274) (natural protein)” came in with a stoichiometry N of 4.

Values taken from PMC11438954 (Nature Communications, 2024).
